Key:
leukemia La = assay: Antitumor activity on grafted leukemia La in mice (ELS, kinetic criterion, chemotherapeutic index); format: in vivo, mouse; details: for Chemotherapeutic index I40 = LD10/ED40 / kinetic criterion (.chi.) = 1-.phi.t/.phi.c / ELS (extension of average life span): La, C57Bl mice; for Chemotherapeutic index I40 = LD10/ED40: i/p
Excerpt: (§1) For the determination of antitumor activity these compounds (I, II, III, IV), 5-fluorouracyl and Ftorafur were used in the same solvents as in the determination of toxicity.
(§2) The determination of antitumor activity was effected on grafted tumors of mice: leukemia L-1210, leukemia P-388, Leukemia La, melanoma B-16, adenocarcinoma 755 (Ca-755), as well as on grafted tumors of rats: Schwetz erythroleukosis, Walker carcinosarcoma (WCS), Geren carcinoma.
Leukemia La was grafted intraperitoneally using a suspension of leukemic cells in a physiological solution. The inoculum contained 10^8 of leukemia cells. […]
In the determination of the antitumor activity the test compounds were introduced in equitoxic doses.
The criterion of the antitumor activity for leukemia P-338, L-1210 and La is the extension of an average life span (ELS) of the test animals as compared to the control ones, expressed in percent and calculated by the formula: [formula] wherein Lt --life span of animals in the test group;
Lc --life span of animals in the control group, i.e. without administration of the test compounds.
The comparative assessment of the scope of therapeutic action is effected using chemotherapeutic indices I40, I60 and I100 : I40 =LD10 /ED40, I60 =LD10 /ED60 I100 =LD10 /ED100, where LD10 =dose causing death of 10% of the animals; ED40, ED60 and ED100 are effective doses causing extension of the animal's life span by 40, 60 and 100 percent respectively.

[1] = Stability against hydrolysis; format: physicochemical
Solubility = format: physicochemical; details: for solubility in organic solvents: alcohols, acetone, acetonitrile, dimethylformamide, dimethylsulphoxide; for solubility in aqueous alkalis or buffer solutions: pH above 10
[2] = Toxicity (LD50), intraperitoneal administration, mongrel white mice, Burns method; format: in vivo, mouse; details: mice; for less toxic than 5-fluorouracyl, fold: relative to 5-fluorouracyl; for LD50: mouse, in vivo, ip, intraperitoneal, I, II, III as emulsion in 10% aqueous Tween-80, IV, Ftorafur, 5-fluorouracyl as aqueous solutions
Excerpt: Toxicity of the compounds according to the present invention has been determined on mongrel white mice in experimental intraperitoneal administration of these compounds and evaluated by the Burns method (using curves of accumulation of the animal death frequencies vs. dose).
As the toxicity characteristic use was made of the dose causing death of 50% of the animals employed for the experiment (LD50).
For the determination of toxicity of (1,3-bis-(2,2,5,5-tetramethyl-1-oxyl-Δ^3 -pyrrolin-3-oyl)-5-fluorouracyl(compound I), 1-(2,2,5,5-tetramethyl-1-oxyl-Δ^3 -pyrrolin-3-oyl)-5-fluorouracyl (compound II) and 3-(2,2,5,5-tetramethyl-1-oxyl-Δ^3 -pyrrolin-3-oyl)-5-fluorouracyl (compound III), these compounds were administered intraperitoneally in the form of an emulsion in a 10% aqueous solution of polyoxyethylsorbitan monooleate (Tween-80, Ferak Berlin West Germany).
For the determination of toxicity of sodium salt of 3-(2,2,5,5-tetramethyl-1-oxyl-Δ^3 -pyrrolin-3-oyl)-5-fluorouracyl (compound IV), Ftorafur and 5-fluorouracyl, these compounds were also administered intraperitoneally in the form of aqueous solutions.

Schwetz erythroleukosis = assay: Antitumor activity on grafted Schwetz erythroleukosis in rats; format: in vivo, rat; details: mongrel rats, single dose 25 mg/kg i/p, days 7-14
Excerpt: as §1, §2
(§3) In the determination of the antitumor activity the test compounds were introduced in equitoxic doses. Ftorafur was also used in the optimal dose which is equal to […].
(§4) As the criterion of antitumor activity on solid tumors used is the inhibition (I) of the tumor volume gain in comparison with the control, expressed in percent and calculated by the formula: [formula] wherein Vc --average volume of the tumor in the control,
(§5) Vt --average volume of the tumor in the experiment.

melanoma B-16 = assay: Antitumor activity on grafted melanoma B-16 in mice (inhibition of tumor volume gain); format: in vivo, mouse; details: for Inhibition of tumor volume gain: B-16, CBAF1 mice, days 1-10
Excerpt: as §1, §2, §3, §4, §5

[3] = background art; cited from earlier work
[4] = leukemia La, relative to Ftorafur
[5] = single dose 75 mg/kg i/p, days 1-7 after grafting
[6] = single dose 75 mg/kg i/p, days 1-7 after grafting, control life span 6,5 days

SMILES | Chemotherapeutic index I40 = LD10/ED40 (leukemia La; days 1-7) | kinetic criterion compared with Ftorafur, in words (leukemia La; leukemia La) | therapeutic effect compared with 5-fluorouracyl, in words (leukemia La; leukemia La) | effectiveness relative to Ftorafur as regards ELS, fold (leukemia La; [4]) | solubility in organic solvents (Solubility) | solubility in aqueous alkalis or buffer solutions (Solubility) | solubility in water (Solubility) | less toxic than 5-fluorouracyl, fold ([2]; i/p) | LD50 [2] | kinetic criterion (.chi.) = 1-.phi.t/.phi.c (leukemia La; [5]) | ELS (extension of average life span) (leukemia La; [6]) | further results
CC1(C)C=C(C(=O)n2c(=O)[nH]cc(F)c2=O)C(C)(C)N1[O] [III, 3-(2,2,5,5-tetramethyl-1-oxyl-Δ^3-pyrrolin-3-oyl)-5-fluororacyl] | 7,8 | close values | close to 5-fluorouracyl | 2 times | wellsoluble | well soluble | sparingly soluble in water | 5 times | 550 mg/kg |  |  | kinetic criterion (.chi.) = 1-.phi.t/.phi.c (leukemia La; single dose 65 mg/kg i/p, days 1-7): 0,2; ELS (extension of average life span) (leukemia La; single dose 65 mg/kg i/p, days 1-7, control life span 6,5 days): 40%; stability against hydrolysis ([1]; room temperature, pH 3 to 11, about 5 hours): do not undergo any noticeable hydrolytical decomposition; toxicity compared with Ftorafur, in words ([2]; i/p): approach toxicity of Ftorafur
O=c1[nH]cc(F)c(=O)[nH]1 [5-fluorouracyl, reference compound] |  |  |  |  |  |  |  |  | 100 mg/kg |  |  | ELS (extension of average life span) (leukemia La; single dose 25 mg/kg i/p, days 1-7, control life span 6.5 days): 57%; kinetic criterion (.chi.) = 1-.phi.t/.phi.c (leukemia La; single dose 35 mg/kg i/p, days 1,3,5,7): 0.67; ELS (extension of average life span) (leukemia La; single dose 35 mg/kg i/p, days 1,3,5,7, control life span 6,5 days): 57%; Chemotherapeutic index I60 = LD10/ED60 (leukemia La; mouse, in vivo, ip): 3.6; Inhibition of tumor volume gain (Schwetz erythroleukosis): 15%; Inhibition of tumor volume gain (melanoma B-16; single dose 25 mg/kg i/p): 0%; activity on melanoma B-16, in words (melanoma B-16; mouse, in vivo): shows no activity; toxicity / side effects in words [3]: highly toxic, it strongly affects the function of bone marrow and gastro-intestinal tract
CC1(C)C=C(C(=O)n2cc(F)c(=O)[nH]c2=O)C(C)(C)N1[O] [II, 1-(2,2,5,5-tetramethyl-1-oxyl-Δ^3 pyrrolin-3-oyl)-5-fluorouracyl] | 2,0 |  | similar, in these characteristics, to 5-fluorouracyl | 3 times | wellsoluble | well soluble | sparingly soluble in water |  | 150 mg/kg | 0.5 | 45% | effectiveness relative to Ftorafur as regards kinetic criterion, fold (leukemia La; [4]): 3 times; hydrolysis in aqueous solutions of alkalis ([1]; to fluorouracyl and 2,2,5,5-tetramethyl-1-oxyl-Δ^3 -pyrrolin-3-carboxylic acid, rate increases with increasing pH): rapidly hydrolyzed; toxicity compared with 5-fluorouracyl, in words ([2]; i/p): substantially similar to that of 5-fluorouracyl
CC1(C)C=C(C(=O)n2cc(F)c(=O)n(C(=O)C3=CC(C)(C)N([O])C3(C)C)c2=O)C(C)(C)N1[O] [I, 1,3-bis-(2,2,5,5-tetramethyl-1-oxyl-Δ^3-pyrrolin-3-oyl)-5-fluorouracyl] | 4,0 | close values | close to 5-fluorouracyl | 2 times | wellsoluble |  | sparingly soluble in water | 3.5 times | 350 mg/kg | 0,1 | 30% | Inhibition of tumor volume gain (melanoma B-16; single dose 75 mg/kg i/p): 15%

— patent US4558127A, “5-Fluorouracil nitroxyl derivatives possessing antitumor activity” (priority 1984, dated 1985)
